From patent publication US20240262835A1, “PRMT5 INHIBITING COMPOUNDS AND USES THEREOF” (ANTENGENE DISCOVERY LIMITED, priority 2023, published 2024)

What was measured:
Assay type in all cases: in vitro ADME
[1] = Caco-2 cell monolayer model assay (permeability); conditions: human
Experimental: (§1) Caco-2 cell model was used to assess the permeability of the compounds disclosed herein. Caco-2 cell was obtained from the CO-BIOR and the CO-BIOR Number is CBP60025. The cell generation used in the experiment was P9.
(§2) 1) […] of cell culture medium was added to each well of the Transwell reservoir, respectively. And then the PET transwell plates were incubated at 37° C., 5% CO2 for 1 hour before cell seeding.
(§3) 2) Caco-2 cells were diluted to 3.43×10^5 cells/mL with culture medium and 100 μL of cell suspension were dispensed into the filter well of the 96-well PET Transwell plate. Cells were cultivated for 14-18 days in a cell culture incubator at 37° C., 5% CO2, 95% relative humidity. Cell culture medium was replaced every other day, beginning no later than 24 hours after initial plating.
(§4) 3) Measure the electrical resistance across the monolayer by using Millicell Epithelial Volt-Ohm measuring system. Record the electrical resistance for each well. Once all wells have been measured, return the plate(s) to the incubator.
(§5) 4) TEER of each well is calculated by the equation below. The TEER value of each well should be greater than 230 ohms·cm^2.
(§6) 1) Remove the Caco-2 plate(s) from the incubator. Wash the monolayer twice with pre-warmed HBSS (10 mM HEPES, pH 7.4). Then incubate the plate(s) at 37° C. for 30 minutes.
(§7) 2) Prepare stock solutions of control compounds in DMSO at 5 mM and dilute with HBSS (10 mM HEPES, pH 7.4) to get 5 μM working solutions. Prepare stock solutions of test compounds in DMSO at 1 mM and dilute with HBSS (10 mM HEPES, pH 7.4) to get 1 μM working solutions. Digoxin is used as the reference substrate of Pgp. Atenolol is used as the low permeability marker, minoxidil is used as the high permeability marker.
(§8) 3) To determine the rate of drug transport in the apical to basolateral direction, add 100 μL of the working donor solutions (without inhibitor) to the Transwell insert (apical compartment). Fill the wells in the receiver plate (basolateral compartment) with 300 μL of transport buffer. To determine the rate of drug transport in the basolateral to apical direction, add 300 μL of the working donor solutions (without inhibitor) to the receiver plate wells (basolateral compartment). Fill the Transwell insert (apical compartment) with 100 μL of transport buffer.
(§9) 4) Transfer 50 μL samples from the working solutions to 300 μL of cold MeOH:acetonitrile=1:1 with IS (50 ng/ml Labetalol, 50 ng/ml Tolbutamide) to prepare the time 0 samples. Incubate the Transwell plate at 37° C., 5% CO2 with shaking at 60 rpm on a rotary shaker for 2 hours.
(§10) 5) At the end of the transport period, transfer 50 μL of samples from apical and basolateral wells to a new 96-well plate. Add 300 μL of quenching solution (MeOH:acetonitrile=1:1 with IS (50 ng/ml Labetalol, 50 ng/mL Tolbutamide)) into each well of the plate(s). Vortex for 10 minutes. Samples are centrifuged at 4000 rpm g for 30 minutes. An aliquot of 100 μL of the supernatant is mixed with an appropriate volume of ultra-pure water (depends on the LC-MS/MS signal response and peak shape) before LC-MS/MS analysis.
(§11) 6) To determine the Lucifer Yellow leakage after 2-hour transport period, prepare stock solutions of Lucifer yellow in DMSO and dilute with HBSS (10 mM HEPES, pH 7.4) to reach the final concentration of 100 μM. Add 100 μL of the Lucifer yellow solution to the apical compartment. Fill the basolateral compartment with 300 μL of HBSS (10 mM HEPES, pH 7.4). Incubate the plate(s) at 37° C. for 30 minutes and remove 80 μL directly from the apical and basolateral wells and transfer to new 96 wells plates. Measure Lucifer Yellow fluorescence (to monitor monolayer integrity) in a fluorescence plate reader at 485 nm excitation and 530 nm emission.
(§12) 7) Discard the remaining solution in the cell plate, Add 300 μL of quenching solution (MeOH:acetonitrile=1:1 with IS (50 ng/ml Labetalol, 50 ng/mL Tolbutamide)) into each well of the plate(s), blow up and down and mix well for 5 times. […]

Caco-2 cell monolayer = Caco-2 cell monolayer model assay (permeability); conditions: Caco-2, 1 μM
Experimental: as §1, §2, §3, §4, §5, §6, §7, §8, §9, §10, §11, §12

CYP2C9 = CYP2C9 (Homo sapiens (Human), UniProt P11712); assay: CYP isoforms inhibitory assay in human liver microsome, CYP2C9; conditions: substrate diclofenac
Experimental: CYP isoforms inhibitory activities of test compounds were measured in human liver microsome.
Preparation details of these substrates are given in below table. The substrate stock solution was stored in a −20° C. freezer. Prior to use, the substrate stock solution was removed from the freezer and allowed to rise to room temperature. Then the substrate stock solution was mixed on a whirly mixer for 30 seconds.
HLMs were stored in a −80° C. freezer. Prior to use, the pooled HLM was removed from the freezer and allowed to thaw in a 37° C. water bath and then stored on wet ice.
The positive control inhibitors and their concentrations used by each isozyme are summarized below.
All samples were incubated in a 37° C. water bath, with three parallels for each concentration of the test compound and two parallels for each concentration of the positive control inhibitor. 100 μL of microsome working solution was taken and added 2 μL of the test product or positive inhibitor working solution. 2 μL solvents was added to the solvent control, and put in a water bath to pre-incubate for 10 min. After pre-incubation, 98 μL of NADPH regeneration solution was added to all samples to start the reaction. Then the mixture was put back in the water bath and incubated for a certain period of time.
The reaction was quenched by 200 μL stop solution. […]
IC50 values were determined using 3- or 4-parameter logistic equation.

Chain of CYP2C9 (P11712 whole entry, canonical isoform): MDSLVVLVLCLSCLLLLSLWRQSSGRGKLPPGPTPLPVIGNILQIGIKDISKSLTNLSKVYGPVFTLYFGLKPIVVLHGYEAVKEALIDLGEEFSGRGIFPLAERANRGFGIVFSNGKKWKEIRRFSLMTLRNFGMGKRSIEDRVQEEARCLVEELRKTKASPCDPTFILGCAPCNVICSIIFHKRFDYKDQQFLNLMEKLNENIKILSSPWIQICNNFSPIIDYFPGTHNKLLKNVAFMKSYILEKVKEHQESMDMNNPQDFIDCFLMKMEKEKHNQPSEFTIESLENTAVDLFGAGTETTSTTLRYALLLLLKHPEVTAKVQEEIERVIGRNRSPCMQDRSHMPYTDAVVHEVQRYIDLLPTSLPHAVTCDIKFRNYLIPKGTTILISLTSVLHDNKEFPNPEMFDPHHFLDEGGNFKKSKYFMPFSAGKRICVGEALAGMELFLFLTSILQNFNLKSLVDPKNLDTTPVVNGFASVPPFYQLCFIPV

| Compound | efflux ratio at 2 h, 1 μM ([1]; Caco-2, pH 7.4) | Papp A→B at 2 h, 1 μM ([1]; Caco-2, 1 μM, 2 hours, pH 7.4) | Papp B→A at 2 h, 1 μM ([1]; Caco-2, 1 μM, 2 hours, pH 7.4) | Recovery AP − BL (Caco-2 cell monolayer) | Recovery BL − AP (Caco-2 cell monolayer) | Papp (A−B) (Caco-2 cell monolayer; 2 hours, pH 7.4) | Papp (B−A) (Caco-2 cell monolayer; 2 hours, pH 7.4) | Efflux Ratio (Caco-2 cell monolayer; Papp (B-A)/Papp (A-B)) | IC50 (CYP2C9) |
| --- | --- | --- | --- | --- | --- | --- | --- | --- | --- |
| CN(C(=O)c1ccc2nc(N)c3cncn3c2c1)[C@@H]1COc2cc(C(F)(F)F)ccc21 [Compound 12] | 1.98 | 6.07 ×10⁻⁶ cm/s | 12 ×10⁻⁶ cm/s | – | – | – | – | – | – |
| CN(C(=O)c1ccc2nc(N)c3cncn3c2c1)C1COc2cc(C(F)(F)F)ccc21 (stereo not drawn) [Compound 17] | – | – | – | 81.0% | 85.6% | 6.70 10^−6 cm/s | 11.8 10^−6 cm/s | 1.76 | > 30 µM |
